The text below walks through data of ChEMBL document CHEMBL1201862, “PubChem BioAssay data set” (2004).

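Five compound concentrations were applied to cells in 96-well plates for 48 hours; endpoints were derived by simple linear interpolation of the resulting dose-response curve. GI50 marks 50% less growth.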 Activity calls are given as the source filed them. Cut-off read from the data, not from the text of the source: active = GI50 up to about 1.1 µM and inactive = higher.

Holding throughout (assay): NCI-60 cell line screen, 48 h
For experiment [1], the system named is SF-539.
In experiment [2] the test system is HCT-15.
Experiment [3] relates to LOX IMVI.
The subject of experiment [4] is MOLT-4.
Experiment [5] concerns M14.
For experiment [6], the system named is SNB-19.
The test system of experiment [7] is HOP-92.
The subject of experiment [8] is CAKI-1.
For experiment [9], the system named is A549.
The subject of experiment [10] is HL-60.
Experiment [11] concerns SR.
In experiment [12] the test system is UACC-62.
The test system of experiment [13] is OVCAR-8.
Experiment [14] deals with U-251.
The test system of experiment [15] is UACC-257.
Experiment [16] concerns SNB-75.

Turning to `CC(C)c1cccc(C(C)C)c1NC1=CC(=O)C(=O)c2ccccc21`, the GI50 is > 100 µM (inactive) in experiment [1]; greater than 100 µM in experiment [2]; 36.3 µM (inactive) in experiment [3]; 58.5 µM (inactive) in experiment [4]; > 100 µM (inactive) in experiment [5]; > 100 µM (inactive) in [6]. Also, the GI50 in [7] was > 100 µM (inactive); in experiment [8], > 100 µM (inactive); in experiment [9], > 100 µM (inactive); in experiment [10], 77.8 µM (inactive); in [11] it was 35.5 µM (inactive); in [12], > 100 µM (inactive). The GI50 in experiment [13] was > 100 µM (inactive); in [14], > 100 µM (inactive); in [15], 67 µM (inactive).

Take `NC(=O)c1ccccc1NC(=O)C(=O)Cc1nc2ccccc2nc1O`: the GI50 in experiment [1] was 48.5 µM (inactive); in experiment [2], greater than 100 µM; in experiment [3], > 100 µM (inactive); in experiment [4] it was > 100 µM (inactive); in experiment [5], > 100 µM (inactive); in experiment [6], > 100 µM (inactive). In addition, the GI50 in experiment [7] was 98.6 µM (inactive); in [8], > 100 µM (inactive); in experiment [16], 60.8 µM (inactive); in experiment [9], > 100 µM (inactive); in experiment [10], > 100 µM (inactive); in experiment [12], > 100 µM (inactive). The GI50 is 50 µM (inactive) in [13], > 100 µM (inactive) in experiment [14] and > 100 µM (inactive) in experiment [15].

On to `Clc1ccc(CNc2nc3ccccc3nc2-c2cccs2)c(Cl)c1`, for which the GI50 was > 100 µM (inactive) in [1]; 38.1 µM in experiment [2]; 27.9 µM (inactive) in experiment [4]; > 100 µM (inactive) in [6]; 13.1 µM (inactive) in [7]; 97.3 µM (inactive) in [9]. The GI50 in experiment [10] is 21.9 µM (inactive); in experiment [11], 31.2 µM (inactive); in [13], > 100 µM (inactive); in experiment [14] it was 89.3 µM (inactive); in experiment [15], > 100 µM (inactive).

Turning to `Cc1ccc(NC(=O)CCC(=O)C2CC(=O)CCC2=O)cc1C` (stereo unspecified), the GI50 was > 100 µM (inactive) in experiment [1]; greater than 100 µM in experiment [2]; > 100 µM (inactive) in experiment [3]; > 100 µM (inactive) in experiment [4]; > 100 µM (inactive) in experiment [5]; > 100 µM (inactive) in experiment [6]. Further, the GI50 in experiment [7] was 76.4 µM (inactive); in experiment [8], > 100 µM (inactive); in experiment [9] it was > 100 µM (inactive); in experiment [10] it was > 100 µM (inactive); in experiment [12], > 100 µM (inactive); in experiment [13], > 100 µM (inactive). The GI50 in [14] and in [15] was > 100 µM (inactive) each time.

With `COc1cc([C@@H]2OC(=O)C3C2C(=O)O[C@H]3c2ccc(O)c(OC)c2)ccc1O` (stereo partly specified), the GI50 in [1] is > 100 µM (inactive); in experiment [2], greater than 100 µM; in [3] it was > 100 µM (inactive); in experiment [4], > 100 µM (inactive); in experiment [5], > 100 µM (inactive); in experiment [6], > 100 µM (inactive). Besides, the GI50 in experiment [7], in [8], in experiment [16], in experiment [9], in [11] and in [12] was > 100 µM (inactive) in each case. For the same compound, the GI50 in experiment [13], in [14] and in [15] was > 100 µM (inactive) throughout.

Consider `COC(=O)[C@H]1C2CC[C@@H]3C45C[C@@H](c6ccoc6)O[C@@H]4O[C@@H](O2)C31CCC5C` (stereo partly specified), for which the GI50 was > 100 µM (inactive) in [1]; 86.3 µM in [2]; > 100 µM (inactive) in [3]; 69.7 µM (inactive) in [4]; > 100 µM (inactive) in [5]; > 100 µM (inactive) in experiment [6]. Besides, the GI50 was 44.6 µM (inactive) in [7]; > 100 µM (inactive) in experiment [8]; > 100 µM (inactive) in [9]; > 100 µM (inactive) in experiment [10]; > 100 µM (inactive) in experiment [12]; > 100 µM (inactive) in experiment [13]. Besides, the GI50 in experiment [14] and in experiment [15] was > 100 µM (inactive) in each case.

With `CC(C)C(NCc1c2ccccc2[n+]([O-])c2ccccc12)C(=O)O` (stereo unspecified), the GI50 in experiment [2] was 31 µM; in experiment [3] it was 33.8 µM (inactive); in [4], 26.2 µM (inactive); in experiment [5], > 100 µM (inactive); in experiment [6] it was 53.3 µM (inactive); in experiment [7] it was 1.8 µM (inactive). Further, the GI50 is > 100 µM (inactive) in experiment [8]; 20.9 µM (inactive) in experiment [16]; > 100 µM (inactive) in experiment [9]; 30.3 µM (inactive) in [10]; 56.6 µM (inactive) in experiment [12]; 70 µM (inactive) in experiment [13]. For the same compound, the GI50 in experiment [14] was 38.1 µM (inactive); in experiment [15], > 100 µM (inactive).

As to `Cn1cc2ccccc2c1-c1nc(F)nc(Oc2ccc3c(c2)CC[C@@H]2C3CC[C@@]3(C)C2C[C@H](O)[C@@H]3O)n1` (stereo partly specified), the GI50 in experiment [1] is 13.5 µM (inactive); in experiment [2], 12.2 µM; in [4] it was 5.43 µM (inactive); in experiment [5], 15.9 µM (inactive); in experiment [6], 13.8 µM (inactive); in [7], 22.3 µM (inactive). For the same compound, the GI50 in experiment [8] was 18.1 µM (inactive); in [16], 20.5 µM (inactive); in [9], 18.6 µM (inactive); in experiment [10], 22.4 µM (inactive); in [12], 17.5 µM (inactive); in [13] it was 15.8 µM (inactive). The GI50 in [14] is 10.3 µM (inactive); in experiment [15], 23.5 µM (inactive).

Regarding `C[C@]12CCc3nonc3C1CC[C@@H]1C2CC[C@@]2(C)C1CC[C@@H]2O` (stereo partly specified), the GI50 is > 100 µM (inactive) in experiment [1]; greater than 100 µM in [2]; > 100 µM (inactive) in [3]; > 100 µM (inactive) in experiment [4]; > 100 µM (inactive) in experiment [5]; > 100 µM (inactive) in experiment [6]. Besides, the GI50 is 94.4 µM (inactive) in experiment [7]; > 100 µM (inactive) in experiment [8]; 86.7 µM (inactive) in experiment [16]; > 100 µM (inactive) in experiment [9]; > 100 µM (inactive) in experiment [10]; > 100 µM (inactive) in experiment [12]. The GI50 in [13], in experiment [14] and in experiment [15] was > 100 µM (inactive) each time.

As to `COC(=O)C(=O)C(C(=O)C(=O)Nc1cccc(C(C)=O)c1)c1nc2ccc([N+](=O)[O-])cc2nc1O` (stereo unspecified), the GI50 in experiment [1] is > 100 µM (inactive); in experiment [2], greater than 100 µM; in experiment [3] it was > 100 µM (inactive); in experiment [4], > 100 µM (inactive); in experiment [5], > 100 µM (inactive); in [6], > 100 µM (inactive). Also, the GI50 is > 100 µM (inactive) in experiment [7]; > 100 µM (inactive) in [8]; > 100 µM (inactive) in experiment [9]; 80 µM (inactive) in [10]; > 100 µM (inactive) in experiment [11]; > 100 µM (inactive) in experiment [12]. For the same compound, the GI50 in experiment [13], in [14] and in experiment [15] was > 100 µM (inactive) throughout.

Take `CN/N=C(/CC(=O)c1sc(NNC(C)=O)nc1C)C(=O)Nc1ccc(OC)cc1OC`: the GI50 was > 100 µM (inactive) in [1]; greater than 100 µM in [2]; > 100 µM (inactive) in [3]; > 100 µM (inactive) in [4]; > 100 µM (inactive) in [5]; > 100 µM (inactive) in experiment [6]. The GI50 in [7], in experiment [8], in [9], in [10], in experiment [11] and in [12] was > 100 µM (inactive) throughout. Besides, the GI50 in experiment [13], in [14] and in experiment [15] was > 100 µM (inactive) throughout.

`COc1ccccc1OCc1nnc(SCC(=O)O)n1-c1ccccc1`: the GI50 in [1] is > 100 µM (inactive); in experiment [2], greater than 100 µM; in experiment [3], > 100 µM (inactive); in experiment [4], > 100 µM (inactive); in experiment [5] it was > 100 µM (inactive); in experiment [7] it was > 100 µM (inactive). Besides, the GI50 in experiment [16], in experiment [9], in experiment [10], in [11], in [12] and in experiment [13] was > 100 µM (inactive) in each case. The GI50 in experiment [14] and in experiment [15] was > 100 µM (inactive) in each case.

For `CCCCCN(CCCCC)C(=O)[C@H](CCC(=O)OCc1ccccc1)NC(=O)c1cc2ccccc2[nH]1`, the GI50 is > 100 µM (inactive) in [1]; greater than 100 µM in experiment [2]; > 100 µM (inactive) in experiment [3]; > 100 µM (inactive) in experiment [4]; > 100 µM (inactive) in experiment [5]; > 100 µM (inactive) in experiment [6]. The GI50 in experiment [7], in experiment [8], in [16], in [9], in experiment [10] and in [12] was > 100 µM (inactive) throughout. Besides, the GI50 in experiment [13], in experiment [14] and in [15] was > 100 µM (inactive) each time.

Take `CN(/N=C/c1ccnc2ccccc12)c1c([N+](=O)[O-])cc([N+](=O)[O-])cc1[N+](=O)[O-]`: the GI50 was > 100 µM (inactive) in experiment [1]; 44.5 µM in [2]; 48.2 µM (inactive) in experiment [3]; 28.1 µM (inactive) in experiment [4]; 43.3 µM (inactive) in experiment [5]; > 100 µM (inactive) in experiment [6]. Also, the GI50 is 28.1 µM (inactive) in [7]; 25.1 µM (inactive) in [8]; > 100 µM (inactive) in experiment [16]; 94.8 µM (inactive) in experiment [9]; 22.4 µM (inactive) in experiment [10]; > 100 µM (inactive) in experiment [12]. The GI50 is 98.2 µM (inactive) in experiment [13], 88.3 µM (inactive) in [14] and > 100 µM (inactive) in experiment [15].
